Activity calls are given as the source filed them.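 How the source made its calls: active means blocks the choline transporter at some tested dose and yields a fitted dose response curve; inconclusive means no clear call, values can overlap the other calls; inactive means no blocking at any dose or no curve.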

This is an account of results in PubChem BioAssay AID588401 (Johns Hopkins Ion Channel Center, 2011).

High affinity choline transporter 1 (Homo sapiens), sequence (Q9GZV3 whole entry, looked up): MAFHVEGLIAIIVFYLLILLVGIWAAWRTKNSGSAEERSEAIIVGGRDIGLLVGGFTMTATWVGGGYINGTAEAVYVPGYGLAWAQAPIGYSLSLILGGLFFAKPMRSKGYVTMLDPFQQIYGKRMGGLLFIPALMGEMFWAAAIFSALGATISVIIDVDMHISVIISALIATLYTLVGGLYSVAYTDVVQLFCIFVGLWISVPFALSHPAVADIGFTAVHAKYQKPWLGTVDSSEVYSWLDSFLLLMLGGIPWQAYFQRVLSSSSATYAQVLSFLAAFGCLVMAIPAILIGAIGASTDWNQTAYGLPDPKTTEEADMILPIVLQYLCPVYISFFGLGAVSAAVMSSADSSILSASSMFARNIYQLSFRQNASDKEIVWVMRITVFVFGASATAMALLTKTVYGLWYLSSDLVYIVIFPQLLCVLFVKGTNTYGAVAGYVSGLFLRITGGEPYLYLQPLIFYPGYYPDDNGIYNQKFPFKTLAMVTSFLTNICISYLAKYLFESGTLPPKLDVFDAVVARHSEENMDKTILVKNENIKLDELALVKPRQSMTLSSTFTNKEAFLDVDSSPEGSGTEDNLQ

The first experiment concerns the target High affinity choline transporter 1 (Homo sapiens) (UniProt Q9GZV3). Description: CHT inhibitors, dose response, cell-based, 10-point CRC, membrane potential dye (AID 588401). Conditions: HEK293-CHT, choline-induced depolarization, at 25 µM (top of the series), cells express LV-AA mutant CHT.
With `Cc1ccc(S(=O)(=O)N2[C@@H](c3ccc(Cl)cc3)C(C(=O)O)=CC[C@H]2c2ccc(Cl)cc2)cc1`, the “inhibition (negative values = inhibition)” value (“inhibition” below) was “inactive”.

As to `Cc1ccc(C(=O)NC2CCCCC2)cc1S(=O)(=O)N1CCCC1`, the “inhibition” value was “inactive”.

Consider `CN(C)CCCn1c(=O)n(C2CCCCC2)c(=O)c2c3c(sc21)CCCCC3`, for which the “inhibition” value is “inactive”.

On to `c1ccc(CN2CCN(c3nc4ccccc4n4cnnc34)CC2)cc1`, for which the “inhibition” value is “inactive”.

As to `CCc1cc2c(N3CCN(c4nnc(CC)s4)CC3)ncnc2s1`, the “inhibition” value was “inactive”.

As for `O=C(COC(=O)CCCSc1nc2ccccc2[nH]1)NC(=O)NC1CCCC1`, the “inhibition” value is “inactive”.

Regarding `Cc1nn(-c2ccccc2)c2[nH]c(=O)cc(C(F)(F)F)c12`, the “inhibition” value is “inactive”.

On to `C=CCSc1nc2ccccc2n1Cc1nnc(-c2cccs2)o1`, for which the “inhibition” value is “inactive”.

Turning to `CCCOc1ccc(C(CC(=O)O)NC(=O)c2sc3ccccc3c2Cl)cc1` (configuration not stated), the “inhibition” value is “inactive”.

As to `Cc1ccc(C(=O)CSc2nnc(-c3ccco3)n2C)cc1`, the “inhibition” value was “inactive”.

In the case of `Cc1ccc(N2NC(=O)/C(=C\c3cc4c(cc3[N+](=O)[O-])OCO4)C2=O)cc1C`, the “inhibition” value was “inactive”.

Regarding `CCCc1cc(NCC2CCCO2)n2c(nc3ccccc32)c1C#N` (configuration not stated), the “inhibition” value was “inactive”.

For the molecule `O=C(N/N=C/c1ccsc1)c1c[nH]c2ccccc12`, the “inhibition” value is “inactive”.

For the molecule `O=C(CSc1nnc(-c2ccco2)n1Cc1ccco1)NCc1cccs1`, the “inhibition” value was “inactive”.

In the case of `Cc1ccccc1-n1c(C)cc(/C=N/NC(=O)c2ccc(CN3CCOCC3)cc2)c1C`, the “inhibition” value was “inactive”.

On to `CC(C)Nc1nc(Cl)nc(N(C#N)CN2C(=O)c3ccccc3C2=O)n1`, for which the “inhibition” value is “inactive”.

In the case of `COc1cc(/C=C2/C(=O)c3cccc([N+](=O)[O-])c3C2=O)c(Br)cc1O`, the “inhibition” value was “inactive”.

Consider `Cc1ccc(S(=O)(=O)N2[C@@H](c3ccc(Cl)cc3)C(C(=O)O)=CC[C@H]2c2ccc(Cl)c(Cl)c2)cc1`, for which the “inhibition” value was “inactive”.

`Cc1csc(NC(=O)CSc2nc(C(C)C)nc3ccccc23)n1`: the “inhibition” value is “inactive”.

With `CC(C)(C)S(=O)(=O)/C(C#N)=N/Nc1ccc(Cl)cc1`, the “inhibition” value is “inactive”.

For `CCOC(=O)Cc1csc(NS(=O)(=O)c2ccc3c4c(cccc24)C(=O)N3CC)n1`, the “inhibition” value is “inactive”.

Regarding `Cn1c(-c2sc3ccccc3c2Cl)n[nH]c1=S`, the “inhibition” value is “inactive”.

As for `CC(C)C(=O)Nc1cccc(NC(=O)c2ccc(Cl)cc2Cl)c1`, the “inhibition” value was “inactive”.

With `CCOc1ccc(/C=C2\SC(=S)N(NS(=O)(=O)c3ccccc3)C2=O)cc1OC`, the “inhibition” value is “inactive”.

Consider `COc1cccc(OC)c1OCCCCCc1c(C)n[nH]c1C`, for which the “inhibition” value is “inactive”.

As for `Cc1noc(NS(=O)(=O)c2ccc(NC(=O)COc3ccc(Cl)cc3Cl)cc2)c1C`, the “inhibition” value is “inactive”.

As for `CCOC(=O)N1CCC(NC(=O)C2CCCN(Cc3nc(-c4cccc(Cl)c4)oc3C)C2)CC1` (configuration not stated), the “inhibition” value was “inactive”.

`CCN1CCn2c3c(c4cc(Cl)ccc42)CCCC31` (configuration not stated): the “inhibition” value is “inactive”.

For the molecule `COc1cc2c(cc1OC)-c1cc(NC3CCCCCCC3)nc(=O)n1CC2`, the “inhibition” value is “inactive”.

Consider `COc1ccc(C2=Nn3c(nnc3C3CCCCC3)SC2)cc1OC`, for which the “inhibition” value was “inactive”.

With `Cc1cccc(OCC(O)Cn2c(=N)n(Cc3ccccc3)c3ccccc32)c1` (configuration not stated), the “inhibition” value is “inactive”.

Staying with this experiment, now noted: HEK293-CHT, choline-induced depolarization, cells express LV-AA mutant CHT.
Consider `Cc1ccc(NC(=O)c2ccc(CN3CC(=O)N4CCCCC4C3=O)cc2)c(C)c1` (configuration not stated), for which the IC50 was 4.47 µM.

The IC50 is the concentration that inhibits the measured activity by half.
